Experimental data from patent US20250129430A1, “HIGH ATP-AFFINITY PROTEIN AS THERAPEUTIC TARGET FOR INTRACTABLE CANCER MOLECULAR SUBTYPES AND INHIBITOR THEREOF” (VeraVerse Co., Ltd., priority 2021, published 2025).

Tests used:
Test in all cases: Cell viability drug screen, 12-point dose-response AUC
Format in all cases: cell-based, human
SNU1750 = SNU1750 cells; 72 hours; 12-point dose-response
Summary of the method: (§1)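 Luminescent viability readings, taken 15 min after reagent addition at room temperature, were normalized to the 0.5% DMSO control to build 12-point dose-response curves. Trapezoidal integration gave the AUC. Cells had been plated at 5×10^3 per well and then exposed to half-log dilutions for 72 h.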

SNU719 = SNU719 cells; 72 hours; 12-point dose-response
Summary of the method: as §1

YCC11 = YCC11 cells; 72 hours; 12-point dose-response
Summary of the method: as §1

NCC24 = NCC24 cells; 72 hours; 12-point dose-response
Summary of the method: as §1

SNU601 = SNU601 cells; 72 hours; 12-point dose-response
Summary of the method: as §1

SNU668 = SNU668 cells; 72 hours; 12-point dose-response
Summary of the method: as §1

SNU1 = SNU1 cells; 72 hours; 12-point dose-response
Summary of the method: as §1

YCC2 = YCC2 cells; 72 hours; 12-point dose-response
Summary of the method: as §1

SNU216 = SNU216 cells; 72 hours; 12-point dose-response
Summary of the method: as §1

NCC20 = NCC20 cells; 72 hours; 12-point dose-response
Summary of the method: as §1

NCC19 = NCC19 cells; 72 hours; 12-point dose-response
Summary of the method: as §1

KATO3 = KATO3 cells; 72 hours; 12-point dose-response
Summary of the method: as §1

SNU620 = SNU620 cells; 72 hours; 12-point dose-response
Summary of the method: as §1

SK4 = SK4 cells; 72 hours; 12-point dose-response
Summary of the method: as §1

NCC59 = NCC59 cells; 72 hours; 12-point dose-response
Summary of the method: as §1

AGS = AGS cells; 72 hours; 12-point dose-response
Summary of the method: as §1

MKN28 = MKN28 cells; 72 hours; 12-point dose-response
Summary of the method: as §1

SNU638 = SNU638 cells; 72 hours; 12-point dose-response
Summary of the method: as §1

MKN1 = MKN1 cells; 72 hours; 12-point dose-response
Summary of the method: as §1

NCI_N87 = NCI_N87 cells; 72 hours; 12-point dose-response
Summary of the method: as §1

Hs746T = Hs746T cells; 72 hours; 12-point dose-response
Summary of the method: as §1

SNU484 = SNU484 cells; 72 hours; 12-point dose-response
Summary of the method: as §1

SNU16 = SNU16 cells; 72 hours; 12-point dose-response
Summary of the method: as §1

OCUM1 = OCUM1 cells; 72 hours; 12-point dose-response
Summary of the method: as §1

YCC3 = YCC3 cells; 72 hours; 12-point dose-response
Summary of the method: as §1

SNU1967 = SNU1967 cells; 72 hours; 12-point dose-response
Summary of the method: as §1

MKN45 = MKN45 cells; 72 hours; 12-point dose-response
Summary of the method: as §1

MKN74 = MKN74 cells; 72 hours; 12-point dose-response
Summary of the method: as §1

FU97 = FU97 cells; 72 hours; 12-point dose-response
Summary of the method: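 Trapezoidal AUC of a 12-point, DMSO-normalized dose-response curve. Luminescent viability was measured after 72 h of exposure at 37° C to half-log serial dilutions (0.5% DMSO control), dosed 24 h after plating FU97 cells at 5×10^3 per well.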

CC(/C=C/C(=O)NO)=C\[C@@H](C)C(=O)c1ccc(N(C)C)cc1 [Trichostatin A (TSA), Trichostatin A]
area under the viability curve (AUC), normalized (SNU1750): −1.0771
area under the viability curve (AUC), normalized (SNU719): 1.883
area under the viability curve (AUC), normalized (YCC11): −0.2695
area under the viability curve (AUC), normalized (NCC24): −1.307
area under the viability curve (AUC), normalized (SNU601): 1.155
area under the viability curve (AUC), normalized (SNU668): 0.1344
area under the viability curve (AUC), normalized (SNU1): −0.9946
area under the viability curve (AUC), normalized (YCC2): 0.2017
area under the viability curve (AUC), normalized (SNU216): 0
area under the viability curve (AUC), normalized (NCC20): −1.842
area under the viability curve (AUC), normalized (NCC19): −0.3026
area under the viability curve (AUC), normalized (KATO3): −0.1555
area under the viability curve (AUC), normalized (SNU620): −1.343
area under the viability curve (AUC), normalized (SK4): 0.7897
area under the viability curve (AUC), normalized (NCC59): 1.784
area under the viability curve (AUC), normalized (AGS): −1.137
area under the viability curve (AUC), normalized (MKN28): −0.6515
area under the viability curve (AUC), normalized (SNU638): −0.2758
area under the viability curve (AUC), normalized (MKN1): 0.4223
area under the viability curve (AUC), normalized (NCI_N87): −0.01232
area under the viability curve (AUC), normalized (Hs746T): 0.6621
area under the viability curve (AUC), normalized (SNU484): 0.4515
area under the viability curve (AUC), normalized (SNU16): 1.141
area under the viability curve (AUC), normalized (OCUM1): 0.1474
area under the viability curve (AUC), normalized (YCC3): 1.17
area under the viability curve (AUC), normalized (SNU1967): −1.472
area under the viability curve (AUC), normalized (MKN45): 2.215
area under the viability curve (AUC), normalized (MKN74): 0.3005
area under the viability curve (AUC), normalized (FU97): −1.181

CC(C)[C@]12O[C@H]1[C@@H]1O[C@]13[C@]1(O[C@H]1C[C@H]1C4=C(CC[C@@]13C)C(=O)OC4)[C@@H]2O [Triptolide]
area under the viability curve (AUC), normalized (SNU1750): −0.4213
area under the viability curve (AUC), normalized (SNU719): 4.573
area under the viability curve (AUC), normalized (YCC11): 0.4144
area under the viability curve (AUC), normalized (NCC24): −1.656
area under the viability curve (AUC), normalized (SNU601): 0.3854
area under the viability curve (AUC), normalized (SNU668): −1.284
area under the viability curve (AUC), normalized (SNU1): −0.1207
area under the viability curve (AUC), normalized (YCC2): 0.6309
area under the viability curve (AUC), normalized (SNU216): 1.18
area under the viability curve (AUC), normalized (NCC20): 0
area under the viability curve (AUC), normalized (NCC19): −1.507
area under the viability curve (AUC), normalized (KATO3): 5.715
area under the viability curve (AUC), normalized (SNU620): −0.986
area under the viability curve (AUC), normalized (SK4): −1.232
area under the viability curve (AUC), normalized (NCC59): 0.356
area under the viability curve (AUC), normalized (AGS): −1.267
area under the viability curve (AUC), normalized (MKN28): −0.03132
area under the viability curve (AUC), normalized (SNU638): 0.828
area under the viability curve (AUC), normalized (MKN1): 0.6772
area under the viability curve (AUC), normalized (NCI_N87): −0.7868
area under the viability curve (AUC), normalized (Hs746T): 0.17
area under the viability curve (AUC), normalized (SNU484): −1.234
area under the viability curve (AUC), normalized (SNU16): 1.9544
area under the viability curve (AUC), normalized (OCUM1): 1.992
area under the viability curve (AUC), normalized (YCC3): 2.62
area under the viability curve (AUC), normalized (SNU1967): −0.4902
area under the viability curve (AUC), normalized (MKN45): 1.157
area under the viability curve (AUC), normalized (MKN74): −0.8231
area under the viability curve (AUC), normalized (FU97): −0.6238
